Assay results taken from patent publication US20100105651A1, “ANTAGONISTS OF SNS SODIUM CHANNELS” (priority 2005, published 2010).
pIC50: −log10 of the molar value.

target: T1, human NaV1.8 (hNaV1.8) ion channel (Homo sapiens, UniProt Q9Y5Y9); assay: Inhibition of Human NaV1.8 stably expressed in SH-SY-5Y cells (membrane potential dye fluorescence assay); assay type: cell-based; settings: SH-SY-5Y cells stably expressing hNaV1.8; FLIPR membrane potential dye; 10 μM pyrethroid, 250 nM TTX; test range 100 μM-0.05 μM; read-out: hNav1.8 IC50
T1 construct: expressed in transfected cells
Procedure: Inhibition of Human NaV1.8 stably expressed in SH-SY-5Y cells
A SH-SY-5Y neuroblastoma cell line stably expressing the human NaV1.8 (hNaV1.8) ion channel was constructed. This cell line has been used to develop a medium to high throughput assay for determining the ability of test compounds to inhibit membrane depolarisation mediated via the hNaV1.8 channel.
SH-SY-5Y hNaV1.8 are grown in adherent monolayer culture using 50:50 Ham's F-12/EMEM tissue culture medium supplemented with 15% (v/v) foetal bovine serum; 2 mM L-glutamine, 1% NEAA and 600 μg·ml^−1 Geneticin sulphate. Cells are removed from the tissue culture flask using trypsin/EDTA and re-plated into black walled, clear bottom 96-well assay plates at 50,000 cells·well^−1 24 hours prior to assay.
On the day of assay the cell assay plates are washed to remove cell culture medium using a sodium free assay buffer (145 mM tetramethyl ammonium chloride; 2 mM calcium chloride; 0.8 mM magnesium chloride hexahydrate; 10 mM HEPES; 10 mM glucose; 5 mM potassium chloride, pH 7.4). Fluorescent membrane potential dye solution (FLIPR™ membrane potential dye, Molecular Devices Corporation), containing 10 μM of a pyrethroid to prevent channel inactivation and 250 nM tetrodotoxin (TTX) to reduce interference from TTX-sensitive sodium channels present in the cell line. Test compound, initially dissolved in dimethyl sulfoxide but further diluted in sodium free buffer, is added to achieve the final test concentration range of 100 μM-0.05 μM.
Cell plates are incubated for 30 minutes at room temperature to allow equilibration of dye and test compound. Plates are then transferred to a fluorescence plate reader for fluorescence measurement using an excitation wavelength of 530 nm whilst measuring fluorescence emission at 565 nm. […] Membrane depolarisation is registered by an increase in fluorescence emission at 565 nm.
The change in fluorescence seen in each test well upon the addition of sodium containing buffer is calculated relative to the baseline fluorescence for that well. This figure is then used for calculating the IC50 for each test compound.

T1 sequence (Q9Y5Y9 whole entry): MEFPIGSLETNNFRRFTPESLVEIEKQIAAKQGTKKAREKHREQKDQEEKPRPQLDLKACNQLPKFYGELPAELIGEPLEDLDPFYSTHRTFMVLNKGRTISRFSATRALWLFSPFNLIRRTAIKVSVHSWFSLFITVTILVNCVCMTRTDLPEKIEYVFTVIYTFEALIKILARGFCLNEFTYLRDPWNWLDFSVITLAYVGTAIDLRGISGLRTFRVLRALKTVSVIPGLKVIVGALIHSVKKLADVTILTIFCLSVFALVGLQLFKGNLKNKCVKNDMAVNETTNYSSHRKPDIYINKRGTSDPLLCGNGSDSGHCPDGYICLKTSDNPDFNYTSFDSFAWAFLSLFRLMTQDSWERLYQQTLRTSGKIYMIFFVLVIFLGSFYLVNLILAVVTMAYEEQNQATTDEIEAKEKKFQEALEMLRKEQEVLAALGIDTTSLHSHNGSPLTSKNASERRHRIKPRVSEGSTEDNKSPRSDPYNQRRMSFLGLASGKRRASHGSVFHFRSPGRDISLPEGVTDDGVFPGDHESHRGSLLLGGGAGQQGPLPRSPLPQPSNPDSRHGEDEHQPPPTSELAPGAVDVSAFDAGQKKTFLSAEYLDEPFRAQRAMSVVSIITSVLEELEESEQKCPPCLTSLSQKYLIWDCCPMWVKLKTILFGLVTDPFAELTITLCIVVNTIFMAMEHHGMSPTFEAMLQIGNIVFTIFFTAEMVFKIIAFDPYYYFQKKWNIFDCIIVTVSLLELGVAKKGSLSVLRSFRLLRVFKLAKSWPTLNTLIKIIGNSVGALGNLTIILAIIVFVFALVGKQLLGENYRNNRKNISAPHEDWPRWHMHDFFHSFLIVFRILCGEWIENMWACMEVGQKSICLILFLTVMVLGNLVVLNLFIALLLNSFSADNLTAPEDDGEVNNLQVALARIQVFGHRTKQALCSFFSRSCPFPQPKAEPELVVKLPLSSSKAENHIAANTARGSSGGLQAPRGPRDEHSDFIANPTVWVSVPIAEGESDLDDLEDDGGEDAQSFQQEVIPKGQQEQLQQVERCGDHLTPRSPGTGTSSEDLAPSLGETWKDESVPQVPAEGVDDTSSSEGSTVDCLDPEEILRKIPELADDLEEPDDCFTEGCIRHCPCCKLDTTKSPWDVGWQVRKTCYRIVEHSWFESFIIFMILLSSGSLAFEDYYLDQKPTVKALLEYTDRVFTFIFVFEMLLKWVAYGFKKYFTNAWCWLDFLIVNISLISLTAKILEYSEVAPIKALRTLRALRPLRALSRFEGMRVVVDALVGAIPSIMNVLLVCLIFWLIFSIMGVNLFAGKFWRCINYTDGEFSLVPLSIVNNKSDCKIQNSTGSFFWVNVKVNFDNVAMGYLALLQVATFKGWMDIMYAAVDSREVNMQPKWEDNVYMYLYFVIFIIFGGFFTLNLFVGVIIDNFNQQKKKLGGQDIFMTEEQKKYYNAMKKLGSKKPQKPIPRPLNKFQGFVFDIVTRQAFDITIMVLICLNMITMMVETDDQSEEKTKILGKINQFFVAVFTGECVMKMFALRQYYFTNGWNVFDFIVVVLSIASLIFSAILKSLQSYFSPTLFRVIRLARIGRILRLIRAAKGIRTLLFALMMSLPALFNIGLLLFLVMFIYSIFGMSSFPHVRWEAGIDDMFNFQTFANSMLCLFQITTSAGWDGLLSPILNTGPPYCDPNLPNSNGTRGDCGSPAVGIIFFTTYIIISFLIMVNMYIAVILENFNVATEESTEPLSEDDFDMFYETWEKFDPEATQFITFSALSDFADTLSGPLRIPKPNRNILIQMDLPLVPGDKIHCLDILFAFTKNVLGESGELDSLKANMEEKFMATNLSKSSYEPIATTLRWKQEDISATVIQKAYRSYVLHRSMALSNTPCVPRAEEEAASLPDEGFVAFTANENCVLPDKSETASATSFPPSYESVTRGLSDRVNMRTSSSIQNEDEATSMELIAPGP

Row | SMILES | pIC50
1 | CC(c1ccc(F)cc1Cl)N(C)C1CN(C(=O)Nc2ccc(C(F)(F)F)cc2)C1 (stereo not drawn) [Example 59, 3-{[1-(2-Chloro-4-fluoro-phenyl)-ethyl]-methyl-amino}-azetidine-1-carboxylic acid (4-trifluoromethyl-phenyl)-amide] | 5.73
2 | CC(c1ccc(F)cc1Cl)N(C)C1CN(C(=O)Nc2ccc(Oc3ccccc3)cc2)C1 (stereo not drawn) [Example 60, 3-{[1-(2-Chloro-4-fluoro-phenyl)-ethyl]-methyl-amino}-azetidine-1-carboxylic acid (4-phenoxy-phenyl)-amide] | 6.24
3 | Cc1ccccc1C(C)NC1CN(C(=O)Nc2ccc(Oc3ccccc3)cc2)C1 (stereo not drawn) [Example 61, 3-(1-o-Tolyl-ethylamino)-azetidine-1-carboxylic acid (4-phenoxy-phenyl)-amide] | 6.12
4 | Cc1ccccc1C(C)N(C)C1CN(C(=O)Nc2ccc(Oc3ccccc3)cc2)C1 (stereo not drawn) [Example 62, 3-[Methyl-(1-o-tolyl-ethyl)-amino]-azetidine-1-carboxylic acid (4-phenoxy-phenyl)-amide] | 6.14
5 | CC(NC1CN(C(=O)Nc2ccc(Oc3ccccc3)cc2)C1)c1ccccc1Cl (stereo not drawn) [Example 63, 3-[1-(2-Chloro-phenyl)-ethylamino]-azetidine-1-carboxylic acid (4-phenoxy-phenyl)-amide] | 6.20
6 | CCCCOc1ccc(NC(=O)N2CC(NC(C)c3ccccc3C)C2)cc1 (stereo not drawn) [Example 65, 3-(1-o-Tolyl-ethylamino)-azetidine-1-carboxylic acid (4-butoxy-phenyl)-amide] | 5.85
7 | CCCCOc1ccc(NC(=O)N2CC(NC(C)c3ccc(F)cc3)C2)cc1 (stereo not drawn) [Example 66, 3-[1-(4-Fluoro-phenyl)-ethylamino]-azetidine-1-carboxylic acid (4-butoxy-phenyl)-amide] | 5.64
8 | CC(c1ccccc1Cl)N(C)C1CN(C(=O)Nc2ccc(Oc3ccccc3)cc2)C1 (stereo not drawn) [Example 67, 3-{[1-(2-Chloro-phenyl)-ethyl]-methyl-amino}-azetidine-1-carboxylic acid (4-phenoxy-phenyl)-amide] | 6.26
9 | CCCCOc1cccc(NC(=O)N2CC(NC(C)c3ccccc3C)C2)c1 (stereo not drawn) [Example 68, 3-(1-o-Tolyl-ethylamino)-azetidine-1-carboxylic acid (3-butoxy-phenyl)-amide] | 6.08
10 | CCCCOc1cccc(NC(=O)N2CC(NC(C)c3ccc(F)cc3)C2)c1 (stereo not drawn) [Example 69, 3-[1-(4-Fluoro-phenyl)-ethylamino]-azetidine-1-carboxylic acid (3-butoxy-phenyl)-amide] | 5.88
11 | CC(NC1CN(C(=O)Nc2ccc(Oc3ccccc3)cc2)C1)c1ccc(OC(F)(F)F)cc1 (stereo not drawn) [Example 70, 3-[1-(4-Trifluoromethoxy-phenyl)-ethylamino]-azetidine-1-carboxylic acid (4-phenoxy-phenyl)-amide] | 4.65
12 | CCCCOc1ccc(NC(=O)N2CC(NC(C)c3ccccc3Cl)C2)cc1 (stereo not drawn) [Example 71, 3-[1-(2-Chloro-phenyl)-ethylamino]-azetidine-1-carboxylic acid (4-butoxy-phenyl)-amide] | 6.11
13 | CC(NC1CN(C(=O)Nc2ccc(OC(F)(F)F)cc2)C1)c1ccc(F)cc1 (stereo not drawn) [Example 72, 3-[1-(4-Fluoro-phenyl)-ethylamino]-azetidine-1-carboxylic acid (4-trifluoromethoxy-phenyl)-amide] | 5.49
14 | CC(NC1CN(C(=O)Nc2cccc(C(F)(F)F)c2)C1)c1ccc(F)cc1 (stereo not drawn) [Example 73, 3-[1-(4-Fluoro-phenyl)-ethylamino]-azetidine-1-carboxylic acid (3-trifluoromethyl-phenyl)-amide] | 5.59
15 | CC(NC1CN(C(=O)Nc2cccc(C(F)(F)F)c2)C1)c1ccccc1Cl (stereo not drawn) [Example 74, 3-[1-(2-Chloro-phenyl)-ethylamino]-azetidine-1-carboxylic acid (3-trifluoromethyl-phenyl)-amide] | 5.54
16 | Cc1ccccc1C(C)NC1CN(C(=O)Nc2cccc(C(F)(F)F)c2)C1 (stereo not drawn) [Example 75, 3-(1-o-Tolyl-ethylamino)-azetidine-1-carboxylic acid (3-trifluoromethyl-phenyl)-amide] | 5.65
17 | CCCCOc1ccc(NC(=O)N2CC(N3CCc4cccc(OC)c4C3)C2)cc1 [Example 76, 3-(8-Methoxy-3,4-dihydro-1H-isoquinolin-2-yl)-azetidine-1-carboxylic acid (4-butoxy-phenyl)-amide] | 5.85

Row | SMILES | pIC50
18 | CC(NC1CN(C(=O)Nc2ccc(Oc3ccccc3)cc2)C1)c1ccc(Oc2ccccc2)cc1 (stereo not drawn) [Example 77, 3-[1-(4-Phenoxy-phenyl)-ethylamino]-azetidine-1-carboxylic acid (4-phenoxy-phenyl)-amide] | 5.96
19 | CC(NC1CN(C(=O)Nc2ccc(C(F)(F)F)cc2)C1)c1ccc(Oc2ccccc2)cc1 (stereo not drawn) [Example 78, 3-[1-(4-Phenoxy-phenyl)-ethylamino]-azetidine-1-carboxylic acid (4-trifluoromethyl-phenyl)-amide] | 5.89
20 | CC(NC1CN(C(=O)Nc2ccc(Oc3ccccc3)cc2)C1)c1ccc(F)cc1 (stereo not drawn) [Example 79, 3-[1-(4-Fluoro-phenyl)-ethylamino]-azetidine-1-carboxylic acid (4-phenoxy-phenyl)-amide] | 6.12
21 | CC(c1ccc(OC(F)(F)F)cc1)N(C)C1CN(C(=O)Nc2ccc(Oc3ccccc3)cc2)C1 (stereo not drawn) [Example 80, 3-{Methyl-[1-(4-trifluoromethoxy-phenyl)-ethyl]-amino}-azetidine-1-carboxylic acid (4-phenoxy-phenyl)-amide] | 5.91
22 | CC(c1ccc(F)cc1)N(C)C1CN(C(=O)Nc2cc(C(F)(F)F)ccc2F)C1 (stereo not drawn) [Example 81, 3-{[1-(4-Fluoro-phenyl)-ethyl]-methyl-amino}-azetidine-1-carboxylic acid (2-fluoro-5-trifluoromethyl-phenyl)-amide] | 5.08
23 | CC(c1ccc(F)cc1)N(C)C1CN(C(=O)Nc2cc(F)cc(C(F)(F)F)c2)C1 (stereo not drawn) [Example 82, 3-{[1-(4-Fluoro-phenyl)-ethyl]-methyl-amino}-azetidine-1-carboxylic acid (3-fluoro-5-trifluoromethyl-phenyl)-amide] | 5.24
24 | CC(c1ccc(F)cc1)N(C)C1CN(C(=O)Nc2ccc(F)c(C(F)(F)F)c2)C1 (stereo not drawn) [Example 83, 3-{[1-(4-Fluoro-phenyl)-ethyl]-methyl-amino}-azetidine-1-carboxylic acid (4-fluoro-3-trifluoromethyl-phenyl)-amide] | 5.41
25 | CC(c1ccc(F)cc1)N(C)C1CN(C(=O)Nc2cccc(C(F)(F)F)c2F)C1 (stereo not drawn) [Example 84, 3-{[1-(4-Fluoro-phenyl)-ethyl]-methyl-amino}-azetidine-1-carboxylic acid (2-fluoro-3-trifluoromethyl-phenyl)-amide] | 5.24
26 | CCCCOc1cccc(NC(=O)N2CC(N(C)C(C)c3ccc(F)cc3)C2)c1 (stereo not drawn) [Example 85, 3-{[1-(4-Fluoro-phenyl)-ethyl]-methyl-amino}-azetidine-1-carboxylic acid (3-butoxy-phenyl)-amide] | 5.84
27 | CCCCOc1ccc(NC(=O)N2CC(N(C)C(C)c3ccc(F)cc3)C2)cc1 (stereo not drawn) [Example 86, 3-{[1-(4-Fluoro-phenyl)-ethyl]-methyl-amino}-azetidine-1-carboxylic acid (4-butoxy-phenyl)-amide] | 5.45
28 | CCCCOc1cccc(NC(=O)N2CC(N(C)C(C)c3ccccc3C)C2)c1 (stereo not drawn) [Example 87, 3-[Methyl-(1-o-tolyl-ethyl)-amino]-azetidine-1-carboxylic acid (3-butoxy-phenyl)-amide] | 5.99
29 | CC(NC1CN(C(=O)Nc2ccc(Oc3ccccc3)cc2)C1)c1ccccc1C(F)(F)F (stereo not drawn) [Example 88, 3-[1-(2-Trifluoromethyl-phenyl)-ethylamino]-azetidine-1-carboxylic acid (4-phenoxy-phenyl)-amide] | 5.93
30 | CCCCOc1ccc(NC(=O)N2CC(N(C)C(C)c3ccccc3C)C2)cc1 (stereo not drawn) [Example 89, 3-[Methyl-(1-o-tolyl-ethyl)-amino]-azetidine-1-carboxylic acid (4-butoxy-phenyl)-amide] | 6.24
31 | CC(c1ccc(Oc2ccccc2)cc1)N(C)C1CN(C(=O)Nc2ccc(C(F)(F)F)cc2)C1 (stereo not drawn) [Example 90, 3-{Methyl-[1-(4-phenoxy-phenyl)-ethyl]-amino}-azetidine-1-carboxylic acid (4-trifluoromethyl-phenyl)-amide] | 5.84
32 | CC(c1ccc(F)cc1)N(C)C1CN(C(=O)Nc2ccc(Oc3ccccc3)cc2)C1 (stereo not drawn) [Example 91, 3-{[1-(4-Fluoro-phenyl)-ethyl]-methyl-amino}-azetidine-1-carboxylic acid (4-phenoxy-phenyl)-amide] | 6.16
33 | CC(c1ccc(F)cc1Cl)N(C(=O)C(F)(F)F)C1CN(C(=O)Nc2ccc(Oc3ccccc3)cc2)C1 (stereo not drawn) [Example 92, 3-[[1-(2-Chloro-4-fluoro-phenyl)-ethyl]-(2,2,2-trifluoro-acetyl)-amino]-azetidine-1-carboxylic acid (4-phenoxy-phenyl)-amide] | 4.82
